Experimental data as given in patent US20110044938A1 (NYCOMED GMBH, priority 2006, published 2011).

Assays:
[1] = tested on: RKO (RKOp27) human colon adenocarcinoma cells; experiment: Alamar Blue cell viability assay, anti-proliferative/cytotoxic activity on proliferating RKO subclones; assay type: cell-based; settings: RKOp27, 72 h, RKO p27 uninduced (proliferating) cells, value = class bound given in Table A, read-out: −logIC50 RKO p27 uninduced (proliferating) (converted)
How it was run: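 Alamar Blue fluorescence (ex 544, em 590 nm) after 72 h compound exposure at 37 °C, 5% CO2, normalised to untreated controls set at 100%. Cells were seeded at 5000 per well and dosed 24 h later with serial semi-logarithmic dilutions in 10% FCS DMEM, four replicates each. −log IC50 [mol/l] was derived from concentration-effect curves.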

[2] = tested on: subclones of RKO colon adenocarcinoma cells (RKOp27 or RKOp21) arrested by Ponasterone A; experiment: Alamar Blue cell viability assay, cell cycle specific mode of action: cells arrested by ectopic p27Kip1 induced by Ponasterone A versus proliferating cells; assay type: cell-based; settings: Homo sapiens, RKO p27 induced (arrested) cells, 10 μM Ponasterone A, 72 hours, value = class bound given in Table A, read-out: −logIC50 RKO p27 induced (arrested) (converted)
How it was run: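 Viability of proliferating versus Ponasterone A (10 μM)-arrested RKOp27/RKOp21 cells after 72 h compound exposure at 37° C, in quadruplicate. Read-out is Alamar Blue fluorescence (544/590 nm) normalised to untreated cells = 100%; values as −log IC50.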

SMILES	IC50 [1]	IC50 [2]
CC1CCCN1C(=O)OC1CCc2c(sc(NC(=O)/C=C/c3cccnc3)c2C#N)C1 (stereo not shown) [Example 93, 2-Methylpyrrolidine-1-carboxylic acid 3-cyano-2-((E)-3-pyridin-3-yl-allanoylamino)-4,5,6,7-tetrahydro-benzo[b]thiophen-6-yl ester]	≤ 0.501 µM	≥ 100 µM
Cc1cc(CNC(=O)OC2CCc3c(sc(NC(=O)/C=C/c4cccnc4)c3C#N)C2)on1 (stereo not shown) [Example 94, (3-Methyl-isoxazol-5-ylmethyl)-carbamic acid 3-cyano-2-((E)-3-pyridin-3-yl-allanoylamino)-4,5,6,7-tetrahydro-benzo[b]thiophen-6-yl ester]	≤ 0.501 µM	≥ 100 µM
Cc1cc(CNC(=O)OC2CCc3c(sc(NC(=O)/C=C/c4cccnc4)c3C#N)C2)n(C)n1 (stereo not shown) [Example 95, (2,5-Dimethyl-2H-pyrazol-3-ylmethyl)-carbamic acid 3-cyano-2-((E)-3-pyridin-3-yl-allanoylamino)-4,5,6,7-tetrahydro-benzo[b]thiophen-6-yl ester]	≤ 0.501 µM	≥ 100 µM
N#Cc1c(NC(=O)/C=C/c2cccnc2)sc2c1CCC(OC(=O)N1CCC(O)CC1)C2 (stereo not shown) [Example 96, 4-Hydroxy-piperidine-1-carboxylic acid 3-cyano-2-((E)-3-pyridin-3-yl-allanoylamino)-4,5,6,7-tetrahydro-benzo[b]thiophen-6-yl ester]	≤ 0.501 µM	≥ 100 µM
CC(C)N(C)C(=O)OCC1CCc2c(sc(NC(=O)/C=C/c3cccnc3)c2C#N)C1 (stereo not shown) [Example 97, Isopropyl-methyl-carbamic acid 3-cyano-2-((E)-3-pyridin-3-yl-allanoylamino)-4,5,6,7-tetrahydro-benzo[b]thiophen-6-ylmethyl ester]	≤ 0.501 µM	≥ 100 µM
N#Cc1c(NC(=O)/C=C/c2cccnc2)sc2c1CCC(COC(=O)NC1CCC1)C2 (stereo not shown) [Example 98, Cyclobutyl-carbamic acid 3-cyano-2-((E)-3-pyridin-3-yl-allanoylamino)-4,5,6,7-tetrahydro-benzo[b]thiophen-6-ylmethyl ester]	≤ 0.501 µM	≥ 100 µM
N#Cc1c(NC(=O)/C=C/c2cccnc2)sc2c1CCC(COC(=O)NC1CC1)C2 (stereo not shown) [Example 99, Cyclopropyl-carbamic acid 3-cyano-2-((E)-3-pyridin-3-yl-allanoylamino)-4,5,6,7-tetrahydro-benzo[b]thiophen-6-ylmethyl ester]	≤ 0.501 µM	≥ 100 µM
N#Cc1c(NC(=O)/C=C/c2cccnc2)sc2c1CCC(COC(=O)N[C@H]1CC[C@H](O)CC1)C2 (stereo partly drawn) [Example 100, trans-4-Hydroxycyclohexyl-carbamic acid 3-cyano-2-((E)-3-pyridin-3-yl-allanoylamino)-4,5,6,7-tetrahydro-benzo[b]thiophen-6-ylmethyl ester]	0.501 to 2 µM	≥ 100 µM
CC(C)NC(=O)OCC1CCc2c(sc(NC(=O)/C=C/c3cccnc3)c2C#N)C1 (stereo not shown) [Example 101, Isopropyl-carbamic acid 3-cyano-2-((E)-3-pyridin-3-yl-allanoylamino)-4,5,6,7-tetrahydro-benzo[b]thiophen-6-ylmethyl ester]	≤ 0.501 µM	≥ 100 µM
CC(CO)NC(=O)OCC1CCc2c(sc(NC(=O)/C=C/c3cccnc3)c2C#N)C1 (stereo not shown) [Example 102, (2-Hydroxy-1-methyl-ethyl)-carbamic acid 3-cyano-2-((E)-3-pyridin-3-yl-allanoylamino)-4,5,6,7-tetrahydro-benzo[b]thiophen-6-ylmethyl ester]	0.501 to 2 µM	≥ 100 µM
CCCNC(=O)OCC1CCc2c(sc(NC(=O)/C=C/c3cccnc3)c2C#N)C1 (stereo not shown) [Example 103, Propyl-carbamic acid 3-cyano-2-((E)-3-pyridin-3-yl-allanoylamino)-4,5,6,7-tetrahydro-benzo[b]thiophen-6-ylmethyl ester]	0.501 to 2 µM	≥ 100 µM
N#Cc1c(NC(=O)/C=C/c2cccnc2)sc2c1CCC(COC(=O)N1CCC[C@H]1CO)C2 (stereo partly drawn) [Example 104, 2-(S)-(Hydroxymethyl) pyrrolidine-1-carboxylic acid 3-cyano-2-((E)-3-pyridin-3-yl-allanoylamino)-4,5,6,7-tetrahydro-benzo[b]thiophen-6-ylmethyl ester]	≤ 0.501 µM	≥ 100 µM
N#Cc1c(NC(=O)/C=C/c2cccnc2)sc2c1CCC(COC(=O)NCC1CC1)C2 (stereo not shown) [Example 105, Cyclopropylmethyl-carbamic acid 3-cyano-2-((E)-3-pyridin-3-yl-allanoylamino)-4,5,6,7-tetrahydro-benzo[b]thiophen-6-ylmethyl ester]	≤ 0.501 µM	≥ 100 µM
N#Cc1c(NC(=O)/C=C/c2cccnc2)sc2c1CCC(OC(=O)N[C@H]1CC[C@H](O)CC1)C2 (stereo partly drawn) [Example 106, trans-4-Hydroxycyclohexyl-carbamic acid 3-cyano-2-((E)-3-pyridin-3-yl-allanoylamino)-4,5,6,7-tetrahydro-benzo[b]thiophen-6-yl ester]	0.501 to 2 µM	≥ 100 µM
CCCNC(=O)OC1CCc2c(sc(NC(=O)/C=C/c3cccnc3)c2C#N)C1 (stereo not shown) [Example 107, Propyl-carbamic acid 3-cyano-2-((E)-3-pyridin-3-yl-allanoylamino)-4,5,6,7-tetrahydro-benzo[b]thiophen-6-yl ester]	≤ 0.501 µM	≥ 100 µM
N#Cc1c(NC(=O)/C=C/c2cccnc2)sc2c1CCC(OC(=O)N1CCC[C@H]1CO)C2 (stereo partly drawn) [Example 108, 2-(S)-(Hydroxymethyl) pyrrolidine-1-carboxylic acid 3-cyano-2-((E)-3-pyridin-3-yl-allanoylamino)-4,5,6,7-tetrahydro-benzo[b]thiophen-6-yl ester]	0.501 to 2 µM	≥ 100 µM
N#Cc1c(NC(=O)/C=C/c2cccnc2)sc2c1CCC(OC(=O)NCC1CC1)C2 (stereo not shown) [Example 109, Cyclopropylmethyl-carbamic acid 3-cyano-2-((E)-3-pyridin-3-yl-allanoylamino)-4,5,6,7-tetrahydro-benzo[b]thiophen-6-yl ester]	≤ 0.501 µM	≥ 100 µM
N#Cc1c(NC(=O)/C=C/c2cccnc2)sc2c1CCC(OC(=O)NC1CCCC1)C2 (stereo not shown) [Example 110, Cyclopentyl-carbamic acid 3-cyano-2-((E)-3-pyridin-3-yl-allanoylamino)-4,5,6,7-tetrahydro-benzo[b]thiophen-6-yl ester]	≤ 0.501 µM	≥ 100 µM
N#Cc1c(NC(=O)/C=C/c2cccnc2)sc2c1CCC(OC(=O)N1CCCCC1)C2 (stereo not shown) [Example 111, Piperidine-1-carboxylic acid 3-cyano-2-((E)-3-pyridin-3-yl-allanoylamino)-4,5,6,7-tetrahydro-benzo[b]thiophen-6-yl ester]	≤ 0.501 µM	≥ 100 µM
C=CCN(C)C(=O)OCC1CCc2c(sc(NC(=O)/C=C/c3cccnc3)c2C#N)C1 (stereo not shown) [Example 112, Allyl-methyl-carbamic acid 3-cyano-2-((E)-3-pyridin-3-yl-allanoylamino)-4,5,6,7-tetrahydro-benzo[b]thiophen-6-ylmethyl ester]	≤ 0.501 µM	≥ 100 µM
N#Cc1c(NC(=O)/C=C/c2cccnc2)sc2c1CCC(OC(=O)N1CCCC(O)C1)C2 (stereo not shown) [Example 113, 3-Hydroxy-piperidine-1-carboxylic acid 3-cyano-2-((E)-3-pyridin-3-yl-allanoylamino)-4,5,6,7-tetrahydro-benzo[b]thiophen-6-yl ester]	≤ 0.501 µM	≥ 100 µM
N#Cc1c(NC(=O)/C=C/c2cccnc2)sc2c1CCC(COC(=O)N1CCC(O)CC1)C2 (stereo not shown) [Example 114, 4-Hydroxy-piperidine-1-carboxylic acid 3-cyano-2-((E)-3-pyridin-3-yl-allanoylamino)-4,5,6,7-tetrahydro-benzo[b]thiophen-6-ylmethyl ester]	≤ 0.501 µM	≥ 100 µM
N#Cc1c(NC(=O)/C=C/c2cccnc2)sc2c1CC[C@H](COC(=O)N1CCC(O)CC1)C2 [Example 114a, 4-Hydroxy-piperidine-1 - carboxylic acid (S)-3-cyano-2-((E)-3-pyridin-3-yl-allanoylamino)-4,5,6,7-tetrahydro-benzo[b]thiophen-6-ylmethyl ester]	≤ 0.501 µM	≥ 100 µM
N#Cc1c(NC(=O)/C=C/c2cccnc2)sc2c1CC[C@@H](COC(=O)N1CCC(O)CC1)C2 [Example 114b, 4-Hydroxy-piperidine-1-carboxylic acid (R)-3-cyano-2-((E)-3-pyridin-3-yl-allanoylamino)-4,5,6,7-tetrahydro-benzo[b]thiophen-6-ylmethyl ester]	≤ 0.501 µM	≥ 100 µM
COC1CN(C(=O)OCC2CCc3c(sc(NC(=O)/C=C/c4cccnc4)c3C#N)C2)C1 (stereo not shown) [Example 115, 3-Methoxy-azetidine-1-carboxylic acid 3-cyano-2-((E)-3-pyridin-3-yl-allanoylamino)-4,5,6,7-tetrahydro-benzo[b]thiophen-6-ylmethyl ester]	0.501 to 2 µM	≥ 100 µM
N#Cc1c(NC(=O)/C=C/c2cccnc2)sc2c1CCC(COC(=O)N1CCCO1)C2 (stereo not shown) [Example 116, Isoxazolidine-2-carboxylic acid 3-cyano-2-((E)-3-pyridin-3-yl-allanoylamino)-4,5,6,7-tetrahydro-benzo[b]thiophen-6-ylmethyl ester]	≤ 0.501 µM	≥ 100 µM
